pIC50: −log10 of the molar value. Like-named read-outs stand apart in the source and are kept apart here.
How the values were obtained:
BuChE = BuChE (Homo sapiens, UniProt P06276); test: In vitro screening assay, BuChE inhibition; format: biochemical
Source text: An in vitro screening assay with various conjugates was completed according to the methods described in Ellman G L et al., Biochem Pharmacol., 7:88-95 (1961) and in Nadarajah B, J. Anal. Toxicol., 16:192-193 (1992), both of which are herein incorporated by reference in their entireties. The assay method was completed according to the following: […]

[1] = system: male CD IGS (Sprague Dawley derived) rats; test: Dose range for cholinergic effects / max tolerated dose; conditions: for TIMTD/ MED: ratio of max tolerated dose to hypothermia MED, rats s.c.
Procedure: The dose range and time course for cholinergic effects of the compounds of the invention was determined as described below. • Subjects: Two hundred eight male CD IGS (Sprague Dawley derived) rats were received at 126-150 grams and maintained four per cage on a regular light/dark cycle (lights on 0600-1800) with ad libitum food and water for about 1 week before commencement of experimentation. • Apparatus: Injections were made subcutaneously (s.c.) with a 25-gauge needle on a 1-mL tuberculin syringe. Observations were made in a 5½×10-inch polycarbonate rat housing cage. Temperature was taken with a rat rectal probe on a Model BAT-12 electronic thermometer. • Compound Preparation: Test compounds were dissolved for example, in 0.9% saline. […] Injection volumes were 1 mL/kg, if the test compound was sufficiently soluble. If less soluble, maximum injection volume were 5 mL/kg.
Test Compounds were dosed at 1, 3, 10, 30, and 100 mg/kg • Procedure: The rats were brought to the test room in the home cage. Baseline temperatures were measured just before injection. After injection s.c., the rat was placed in the observation cage. At 0.5, 1, 2, and 4 hours after injection, it was observed briefly for gross signs; salivation was scored as absent, clearly present, or copious; and rectal temperature was taken. In observation for gross signs, special attention was paid to fasciculation (muscle twitch), tremor/ataxia, and abnormal gait. The experiment was designed to allow assessment of one rat per time point per minute. Salivation score and temperature were determined within this constraint, but only the most salient of gross signs were noted. After the 4-hour observation point, or sooner if signs of distress were observed, the rat was euthanized by CO2 inhalation. • Data Analysis: Gross signs, salivation score, and temperature at each time point were tabulated for inspection. This is a combination of within-subject design for control and between-subjects design for dose effect. That is, the effect of the compound was measured against the reading taken immediately before injection, and the difference between doses of the compound was measured between groups of three rats.

[2] = system: male CD IGS (Sprague Dawley derived) rats; test: Measurement of hypothermia (marker of CNS penetration for AChE inhibitors); format: in vivo; conditions: Rattus norvegicus, sc, read-out: Hypothermia MED (mg/kg)
Procedure: The induction of hypothermia was determined for compounds of the invention according to the methods described in Freedman, et al., European Journal of Pharmacology, 187 (1990), 193-199, which is incorporated by reference herein. Hypothermia is a marker of CNS penetration for AChE inhibitors.
The dose range and time course for cholinergic effects of the compounds of the invention was determined as described below. • Subjects: Two hundred eight male CD IGS (Sprague Dawley derived) rats were received at 126-150 grams and maintained four per cage on a regular light/dark cycle (lights on 0600-1800) with ad libitum food and water for about 1 week before commencement of experimentation. • Apparatus: Injections were made subcutaneously (s.c.) with a 25-gauge needle on a 1-mL tuberculin syringe. Observations were made in a 5½×10-inch polycarbonate rat housing cage. […]
Test Compounds were dosed at 1, 3, 10, 30, and 100 mg/kg • Procedure: The rats were brought to the test room in the home cage. Baseline temperatures were measured just before injection. […] At 0.5, 1, 2, and 4 hours after injection, it was observed briefly for gross signs; salivation was scored as absent, clearly present, or copious; and rectal temperature was taken. […] Salivation score and temperature were determined within this constraint, but only the most salient of gross signs were noted. […]

[3] = biological target: T1, AChE (Human recombinant HEK-293 cells) (Homo sapiens, UniProt P22303); format: biochemical
T1 construct: host or cells: HEK-293 cells (expression host as printed)

rats = test: Methamphetamine drug discrimination test
[4] = biological target: T2, human recombinant acetylcholinesterase (Homo sapiens, UniProt P22303); test: biochemical; conditions: human recombinant AChE, 25° C., 30 minutes preincubation, Dixon plot
T2 construct: purchased Sigma Chemical Co (St. Louis, Mo.) C1682
T2 sequence (P22303 32-614): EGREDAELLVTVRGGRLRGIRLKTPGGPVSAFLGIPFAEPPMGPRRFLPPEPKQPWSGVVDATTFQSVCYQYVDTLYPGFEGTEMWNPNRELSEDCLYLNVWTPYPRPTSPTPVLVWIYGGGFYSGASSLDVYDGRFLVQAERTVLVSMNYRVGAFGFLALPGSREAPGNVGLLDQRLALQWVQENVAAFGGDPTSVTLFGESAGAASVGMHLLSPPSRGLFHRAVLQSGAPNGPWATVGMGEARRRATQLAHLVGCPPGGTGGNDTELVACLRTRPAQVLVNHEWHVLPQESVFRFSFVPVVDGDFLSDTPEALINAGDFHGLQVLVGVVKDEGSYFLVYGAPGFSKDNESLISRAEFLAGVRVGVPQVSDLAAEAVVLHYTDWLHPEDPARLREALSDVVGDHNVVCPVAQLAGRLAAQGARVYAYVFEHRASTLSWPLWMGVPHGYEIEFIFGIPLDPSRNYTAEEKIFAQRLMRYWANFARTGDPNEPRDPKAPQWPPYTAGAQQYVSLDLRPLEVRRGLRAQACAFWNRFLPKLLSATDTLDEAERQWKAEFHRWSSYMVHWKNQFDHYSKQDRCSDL

Sequence of BuChE (P06276 29-602): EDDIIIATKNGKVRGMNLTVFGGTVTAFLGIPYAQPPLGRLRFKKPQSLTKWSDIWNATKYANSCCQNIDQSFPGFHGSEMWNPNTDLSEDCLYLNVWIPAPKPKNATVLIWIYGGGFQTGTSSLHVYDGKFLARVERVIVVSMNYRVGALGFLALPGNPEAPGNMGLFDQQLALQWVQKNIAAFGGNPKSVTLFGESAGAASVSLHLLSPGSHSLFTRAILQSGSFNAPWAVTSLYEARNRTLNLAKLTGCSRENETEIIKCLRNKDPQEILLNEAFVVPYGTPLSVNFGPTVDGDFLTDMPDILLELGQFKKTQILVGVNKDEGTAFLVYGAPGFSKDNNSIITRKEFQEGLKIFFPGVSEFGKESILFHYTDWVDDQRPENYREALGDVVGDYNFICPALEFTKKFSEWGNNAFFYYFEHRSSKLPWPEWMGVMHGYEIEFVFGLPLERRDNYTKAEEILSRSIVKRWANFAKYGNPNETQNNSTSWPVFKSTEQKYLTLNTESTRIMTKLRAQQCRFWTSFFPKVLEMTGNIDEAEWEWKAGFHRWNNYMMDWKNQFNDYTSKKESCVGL
T1 sequence (P22303 32-614): as the sequence (P22303 32-614) above

## C#CCN(C(=O)Oc1cccc([C@@H](C)N(C)C)c1)[C@H](C)Cc1ccccc1 [Compound 17, R-riva-desmethylselegiline]
BuChE; 10 μM
  BuChE I (%) 10 μM: 12%

## C[C@@H](c1cccc(OC(=O)N(C)CCC=C2c3ccccc3CCc3ccccc32)c1)N(C)C [Compound 5A, S-riva-nortriptyline]
[1]
  TIMTD/ MED: ≧100
[1]; rats, s.c., test doses given in mg/kg
  Max Tolerated Dose: ≧100
BuChE; 10 μM
  BuChE I (%) 10 μM: 55%
[2]
  minimal effective dose: ≤ 1 mg/kg

## C[C@@H](c1cccc(OC(=O)N2CC[C@@H](c3ccc(F)cc3)[C@H](COc3ccc4c(c3)OCO4)C2)c1)N(C)C [Compound 9A, S-riva-paroxetine]
BuChE; 10 μM
  BuChE I (%) 10 μM: 4%

## C[C@@H](c1cccc(OC(=O)N[C@H]2C[C@@H]2c2ccccc2)c1)N(C)C (stereo in doubt) [Compound 2, S-riva-tranylcypromine]
[1]
  TIMTD/ MED: 3
BuChE; 10 μM
  BuChE I (%) 10 μM: 67%

## COc1ccccc1CC(C)N(C)C(=O)Oc1cccc([C@H](C)N(C)C)c1 (stereo partly shown) [Compound 15, S-riva-methoxyphenamine]
BuChE; 10 μM
  BuChE I (%) 10 μM: 30%

## C[C@@H](c1cccc(OC(=O)N2CCN(C3=Nc4ccccc4Oc4ccc(Cl)cc43)CC2)c1)N(C)C [Compound 3, S-riva-amoxapine]
[1]
  TIMTD/ MED: ≧10
BuChE; 10 μM
  BuChE I (%) 10 μM: 6%

## Cc1ccccc1O[C@H](CCN(C)C(=O)Oc1cccc([C@H](C)N(C)C)c1)c1ccccc1 [Compound 5, S-riva-atomoxetine]
BuChE; 10 μM
  BuChE I (%) 10 μM: 14%

## C[C@@H](c1cccc(OC(=O)N(C)CCCN2c3ccccc3CCc3ccccc32)c1)N(C)C [Compound 4A, S-riva-desipramine]
[1]
  TIMTD/ MED: ≧30
BuChE; 10 μM
  BuChE I (%) 10 μM: 60%

## C[C@@H](c1cccc(OC(=O)N(C)CCC(Oc2ccc(C(F)(F)F)cc2)c2ccccc2)c1)N(C)C (stereo partly shown) [Compound 7A, S-riva-fluoxetine]
[1]
  TIMTD/ MED: ≧30
BuChE; 10 μM
  BuChE I (%) 10 μM: 15%

## CN1CC[C@@]2(C)c3cc(OC(=O)Nc4ccccc4)ccc3N(C)[C@@H]12 [Phenserine, reference compound]
[3]
  BuChEI (%) 1 μM: 93%
BuChE
  BuChE I (%) 10 μM: 42%

## CCN(C)C(=O)Oc1cccc([C@H](C)N(C)C)c1 [Compound 1, S-rivastigmine, reference compound]
BuChE
  BuChE I (%) 10 μM: 100%

## C#CCN(C(=O)Oc1ccc2c(c1)[C@]1(C)CCN(C)[C@@H]1N2C)[C@H](C)Cc1ccccc1 [Compound 18, Physo-desmethylselegiline]
BuChE; 10 μM
  BuChE I (%) 10 μM: 8%

## C[C@H](Cc1ccccc1)N(C)C(=O)Oc1cccc([C@H](C)N(C)C)c1 [Compound 7, S-riva-l-methamphetamine]
rats; rats trained to discriminate methamphetamine from vehicle, compound 7 at 0.01-3.2 mg/kg i.p., FIG. 1 top
  generalization to methamphetamine (lever selection): lack of stimulus generalization to methamphetamine
rats; rats, 1.0 mg/kg of compound 7, FIG. 2 lower
  behavioral disruption: without behavioral disruption
rats; rats, compound 7 at 0.01-3.2 mg/kg i.p., FIG. 1 lower
  rate of responding: markedly decreased reponse rates

## COCCCC/C(=N\OCCNC(=O)Oc1cccc([C@H](C)N(C)C)c1)c1ccc(C(F)(F)F)cc1 [Compound 8A, S-riva-fluvoxamine]
BuChE; 10 μM
  BuChE I (%) 10 μM: 6%

## CC(CC1CCCCC1)N(C)C(=O)Oc1cccc([C@H](C)N(C)C)c1 (stereo partly shown) [Compound 16, S-riva-propylhexedrine]
[1]
  TIMTD/ MED: ≧10

## C#CCN(C(=O)Oc1cccc([C@H](C)N(C)C)c1)[C@H](C)Cc1ccccc1 [Compound 11, S-riva-desmethylselegiline]
BuChE; 10 μM
  BuChE I (%) 10 μM: 17%

## C[C@@H](Cc1ccccc1)NC(=O)Oc1cccc([C@H](C)N(C)C)c1 [Compound 20, S-riva-d-amphetamine]
[4]
  pIC50: 6.35

## C[C@@H](c1cccc(OC(=O)N(C)CC[C@H](Oc2cccc3ccccc23)c2cccs2)c1)N(C)C [Compound 10A, S-riva-duloxetine]
BuChE; 10 μM
  BuChE I (%) 10 μM: 36%

## C[C@@H](c1cccc(OC(=O)N(C)CCCC2c3ccccc3C=Cc3ccccc32)c1)N(C)C [Compound 6A, S-riva-protriptyline]
[1]
  TIMTD/ MED: >1
BuChE; 10 μM
  BuChE I (%) 10 μM: 53%

## C[C@@H](c1cccc(OC(=O)N(C)[C@@H](C)Cc2ccccc2)c1)N(C)C [Compound 13, S-riva-d-methamphetamine]
[4]
  pIC50: 5.26

From US20110251175A1, “Stigmine Conjugates for Substance Use Disorders” (priority 2008, published 2011)
